{"source": "patent US20240287108A1", "about": "“nSMASE2 INHIBITOR PRODRUGS WITH ENHANCED ORAL AND BRAIN EXPOSURES” (The Johns Hopkins University, priority 2021, published 2024)", "key": {"[1]": {"test": "time-dependent oral pharmacokinetics in mice", "type": "in vivo, mouse", "procedure": "As described earlier, we identified P1 and P18 as the most promising candidates for time dependent PK.\n(§1) All PK studies in mice were conducted according to protocols approved by the Animal Care and Use Committee at Johns Hopkins University. Male CD-1 mice between 25 and 30 g were obtained from Harlan and maintained on a 12 h light-dark cycle with ad libitum access to food and water. […] All of the formulations were freshly prepared prior to the dosing. The mice were sacrificed at specified time points (either 2 h or 0.25, 0.5, 1, 2, 4, 6, and 8 h) post drug administration. For the collection of plasma and brain tissue, animals were euthanized with CO2, and blood samples were collected in heparinized microtubes by cardiac puncture. Brains were dissected and immediately flash frozen (−80° C.) Blood samples were spun at 2000 g for 15 min, and plasma was removed and stored at −80° C. until LC-MS/MS analysis. Prior to extraction, frozen samples were thawed on ice.\nBrain tissues were diluted 1:5 w/v with acetonitrile containing losartan (0.5 μm) and homogenized, followed by vortex-mixing and centrifugation at 10,000 g for 10 min at 4° C. A 50 μL aliquot of the supernatant were diluted with 50 uL of water and transferred to 250 μL polypropylene autosampler vials sealed with teflon caps. Then, 2 μL of the sample were injected into the LC/MS/MS system for analysis. Chromatographic analysis was performed using an Accela ultra-high-performance system consisting of an analytical pump and an autosampler coupled with a TSQ Vantage mass spectrometer. […] The mobile phase consisted of 0.1% formic acid in acetonitrile and 0.1% formic acid in water with gradient elution were used. […] Plasma concentrations (nmol/ml) as well as brain tissue concentrations (nmol/g) were determined and plots of mean plasma concentration versus time were constructed. Non-compartmental analysis modules in Phoenix WinNonlin version 7.0 (Certara USA, Inc., Princeton, NJ) were used to quantify exposures (AUC0-t)."}, "[2]": {"test": "single time-point (2 h) oral pharmacokinetic screening in mice", "type": "in vivo, mouse", "conditions": "single time point PK, oral 10 mg/kg DPTIP equivalent", "procedure": "as §1\nBrain tissues were diluted 1:5 w/v with acetonitrile containing losartan (0.5 μm) and homogenized, followed by vortex-mixing and centrifugation at 10,000 g for 10 min at 4° C. […] Plasma concentrations (nmol/ml) as well as brain tissue concentrations (nmol/g) were determined and plots of mean plasma concentration versus time were constructed. Non-compartmental analysis modules in Phoenix WinNonlin version 7.0 (Certara USA, Inc., Princeton, NJ) were used to quantify exposures (AUC0-t)."}}}
{"smiles": "CCC1CC(N2CCCCC2)CC(CC)N1C(=O)Oc1c(OC)cc(-c2nc(-c3ccccc3)c(-c3cccs3)[nH]2)cc1OC", "note": "(stereo not drawn) [Compound P18, 2,6-Dimethoxy-4-(5-phenyl-4-(thiophen-2-yl)-1H-imidazol-2-yl)phenyl 2′,6′-diethyl-[1,4′-bipiperidine]-1′-carboxylate]", "values": [{"measurement": "plasma exposure of the intact compound (AUC0-t)", "setting": "[1]; oral 10 mg/kg DPTIP equivalent", "result": 0.969, "unit": "µM·h"}, {"measurement": "conversion of prodrug to DPTIP in vivo", "setting": "[1]; oral 10 mg/kg DPTIP equivalent (P18: in the brain)", "result": "> 50", "unit": "%"}, {"measurement": "improvement of brain and plasma levels of DPTIP and/or its brain penetration index compared with DPTIP", "setting": "[2]", "result": "highest improvement"}]}
